One test addresses T1, CCK-A receptor (Rattus norvegicus, UniProt P30551).
T1 construct: from tissue; host or cells: pancreas membranes of Sprague-Dawley rat
T1 sequence (P30551 1-444): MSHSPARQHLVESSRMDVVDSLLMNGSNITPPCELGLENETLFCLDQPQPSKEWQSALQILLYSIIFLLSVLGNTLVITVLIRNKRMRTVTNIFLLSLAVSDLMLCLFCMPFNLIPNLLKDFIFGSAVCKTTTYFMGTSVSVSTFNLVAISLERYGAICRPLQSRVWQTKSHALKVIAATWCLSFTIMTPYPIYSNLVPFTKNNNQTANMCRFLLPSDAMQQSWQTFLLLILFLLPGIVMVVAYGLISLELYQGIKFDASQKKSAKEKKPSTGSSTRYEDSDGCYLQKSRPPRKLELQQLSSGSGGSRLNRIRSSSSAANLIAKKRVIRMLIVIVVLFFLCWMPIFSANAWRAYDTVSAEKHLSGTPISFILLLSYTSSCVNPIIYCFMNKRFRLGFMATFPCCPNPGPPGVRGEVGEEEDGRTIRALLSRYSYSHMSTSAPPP
The experiment in a line: CCK-A receptor binding assay (displacement of 3H-L-364,718 from rat pancreas membranes). The arrangement: species or system Sprague-Dawley rat. The note with it: 3H-L-364,718 0.2 nM, 37° C., 30 min, read-out: In vitro Binding Data IC50 CCK. As to the method: Washer Buffer (for use with Brandel Cell Harvester):
30 liters of 50 mM Tris, ph 7.7: Dissolve 181.7 g. Tris base in 4 1. deionized water at room temperature. Adjust pH to 7.7 with 6 N HCl and Q.S. to 30 1.
50 mM Tris-Cl, 5 mM MgCl2, 5 mM dithio-thretiol, 0.14 mg/ml bacitracin, and 2 mg/ml bovine serum albumin.
1 liter of 5X stock buffer:
30.28 g. Tris base per 800 ml D.I. water 5.09 g. MgCl2 6 H2 O, pH to 7.7 at room temperature with 6N HCl and Q.S. 1 liter, store at 4° C.
250 ml working buffer kept on ice:
50 ml of 5X stock buffer 0.1928 g. dithiothretiol (5 mM), 35 mg bacitracin (0.14 mg/ml), and 0.5 g. BSA (2mg/ml).
Unlabeled L-364,718(nonpeptide ligand):
Unlabeled L-364,718 (300 nM final concentration) is used to define nonspecific binding. A 3 mM solution is made in absolute ethanol and stored in a scintillation vial at -70° C. Aliquots are diluted 100-fold in the assay.
A Sprague-Dawley rat is sacrificed by asphyxiation with carbon dioxide and the pancreas removed. The tissue is immersed in cold wash buffer and carefully trimmed of fat, connective tissue, blood vessels, blotted and weighed. The tissue is homogenized in a Sorvall SS-34 centrifuge tube in 50 volumes of wash buffer using a Polytron at setting 7 for 15 seconds. The tissue is centrifuged (Sorvall SS-34) at 19,000 rpm for 10 min. The supernatant is poured off and the pellet resuspended in sufficient buffer to obtain a contraction of 40 mg tissue wet weight/ml. Separate aliquots (2,3ml) are placed in each of 8 centrifuge tubes and centrifuged as before. The supernatants are poured off and the pellets stored at -70° C. Stored pellets are sufficient for the assay of 160 tubes and are stable for 1-2 months.
During the assay the stored membranes are resuspended in 40 ml of assay buffer by scraping the pellet off the wall of the centrifuge tube and washing it into a teflon-glass homogenizer. Membranes are resuspended by 5 passes with the teflon pestle and the membranes stored on ice until ready for use.
Preparation of Compounds:
Compounds are prepared in DMSO (dimethyl sulfoxide) or in assay buffer. The majority of structures active as CCK antagonists generally require DMSO for complete solubility. Approximately 2-3 mg of compound is weighed directly into a 13×100 mm test tube and sufficient DMSO added to obtain a working stock solution at a concentration 100 fold greater than the highest concentration being tested in the assay. A total of 10 μl of each concentration of drug is added into a final volume of 1 ml to yield a 100 fold dilution of the, working stock solution. Control binding tubes ("totals and nonspecifics") are also treated with 10 μl DMSO.
^3 H-L-364,718 is obtained from New England Nuclear (Cat. #971) and is used as supplied. The final assay concentration of ^3 H-L-364,718 in assay buffer should be 0.2 nM in a final assay volume of 1 ml. ^3 H-L-364,718 (0.2 pmol) is added into the assay in a volume of 25 μl (8 nM working stock solution). The required dilution (usually>1000 fold) is obtained by dividing the working stock concentration into the concentration of the specific lot.
Samples are prepared in triplicate and a "total" (buffer addition) and "nonspecific" (300 nM unlabeled L-364,718) set of tubes included in each set of 24 tubes. The remaining 6 sets of triplicates are used either for screening or IC50 determinations. The order of addition is drugs-DMSO, buffer, unlabeled L-364,718, ^3 H-L-364,718, and to start the assay, membranes.
While tubes are incubating a shaking water bath at 37° C. for 30 min Brandel deposit/dispense filters are presoaked in wash buffer. Following the end of the incubation, sets of 24 tubes are rapidly washed with assay buffer as follows. Assay buffer is added to the incubation tubes to the height of the uppermost cross support in the standard Brandel test tube rack and the contents immediately aspirated. This process is repeated twice more, the filter removed, marked and the next set of 24 tubes processed. […]
(In general: In a radioligand displacement assay an active substance lowers the binding of a labelled ligand.)

The target of test [1] is T2, Gastrin receptor (Cavia porcellus, UniProt H0VZC5).
T2 construct: The fundic mucosa is gently scraped off the submucosa; from tissue; host or cells: gastric glands from fundic mucosa of Hartley guinea pig
T2 sequence (H0VZC5 1-426): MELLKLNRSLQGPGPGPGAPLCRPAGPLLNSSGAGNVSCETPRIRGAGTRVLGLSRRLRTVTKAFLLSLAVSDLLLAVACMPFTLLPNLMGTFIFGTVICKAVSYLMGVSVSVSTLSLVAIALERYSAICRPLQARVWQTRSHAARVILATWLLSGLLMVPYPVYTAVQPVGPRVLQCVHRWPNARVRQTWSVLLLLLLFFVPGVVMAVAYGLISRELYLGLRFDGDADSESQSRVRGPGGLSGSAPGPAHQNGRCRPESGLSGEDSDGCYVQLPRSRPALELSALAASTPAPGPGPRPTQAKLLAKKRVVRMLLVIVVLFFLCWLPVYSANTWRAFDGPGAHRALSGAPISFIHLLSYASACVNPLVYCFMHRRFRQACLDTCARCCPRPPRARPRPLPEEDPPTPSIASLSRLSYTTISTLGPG
The experiment in a line: Gastrin receptor binding assay (displacement of 125I-(Leu-15)-Gastrin from guinea pig fundic glands). More on the design: species or system guinea pig (Hartley Strain). To be noted: guinea pig fundic mucosa glands, 25° C., 30 min, read-out: In vitro Binding Data IC50 Gastrin. As to the method:
(a) Phosphate Buffered Saline (PBS): 8.743 g NaCl, 523 mg K2 HPO4 and 76.8 mg NaH2 PO4 is dissolved in 1.0 liter of deionized water and the pH of the solution is adjusted to 7.3 with 5N NaOH.
(b) Buffer A: While adding Basal Medium Eagle (BME) containing Earle's Salts, L-glutamine and 25 mM HEPES, 3 liters of deionized water is stirred, followed by the addition and dissolution of […] of sodium bicarbonate. The solution is then equilibrated with 95% O2 /5% CO2 gas followed by titration to a pH of 7.4 with NaOH.
(c) Buffer B: 18.75 mg of collagenase and […] of BSA is dissolved in 25 ml of Buffer A.
(d) Buffer C: 0.3 g of BSA is dissolved in 300 ml of Buffer A.
(e) 6.25 mg Bacitracin is dissolved in 25 ml of Buffer A.
(f) ^125 I-(Leu-15)-Gastrin: 100 microcurie dissolved in 2.0 ml of Buffer A to make 50 microcurie/ml.
(g) ^125 I-(15-methionine)-Human Gastrin: 50 microcurie/ml.
(h) (Leu 15)-Gastrin: 5.2 mg of (Leu-15)- Gastrin is dissolved in 10 ml of Buffer A. At the time of assay 1:10 dilution is made and 10 μl assay tube is used.
A guinea pig (Hartley Strain) weighing 150-200 grams, is sacrificed by CO2 asphyxiation and the stomach immediately excised, cut along the greater curvature, cleaned out and immediately immersed in a beaker containing cold PBS, pH 7.3, to insure thorough cleaning. The fundic mucosa is gently scraped off the submucosa and added to a preweighed 50 ml plastic centrifuge tube containing 30 ml of cold Buffer A. The weight of the plastic centrifuge tube containing the buffer is then subtracted from the combined weight of the mucosa and the buffer-containing tube to give the weight of the mucosa. The weight of the mucosa thus determined is recorded for later calculations.
The mucosa is then washed twice in Buffer A. After the final wash, the tissue is minced and is placed in a 100-ml glass beaker containing about 1.0 ml of Buffer A, and washed twice again by repeated centrifugation at 50×g for 5 minutes each and aspiration of supernatant. The washed tissue fragments are then added to a glass Erlenmeyer flask containing 25 ml of Buffer B and incubated in a Dubnoff shaking water bath at 37° C. for 30 minutes in a 95% O2 - 5% CO2 atmosphere. After the incubation, the digested tissue fragments in the Collegenase-buffer solution are triturated, filtered through a 200-micron nylon mesh and centrifuged at 50×g for 5 minutes. The supernatant is aspirated and discarded, the tissue washed 2× in Buffer C, resuspended in same buffer, incubated in a 37° C. water bath in an atmosphere of 95% O2 - 5% CO2 for 5 minutes, and centrifuged. The pelleted glands are suspended in Buffer D at a desired concentration of 2x10^5 glands/ml to use in the receptor binding assay.
Six minisorp tubes (16×100 mm) are serially marked and divided into two groups thus: tubes #1, #2, and #3 are marked "T" for "Totals" and tubes #4, #5, and #6 are marked "NS" for "Non-Specifics." Into each of the six tubes are added 220 μl of prepared glands in Buffer D; 20 μl of Buffer A in tubes #1, #2, and #3; 10 μl, in tubes #4, #5 and #6; (10μ of (Leu-15)-Gastrin (25 μM) in tubes #4, #5, and #6. The six tubes are then transferred immediately to a 25° C. water bath and challenged each with 10 μl ^125 I-(Leu-15)-Gastrin diluted as per calculation. The tubes are then covered with a gas hood connected to a 95% O2 - 5% CO2 gas source and mechanically agitated in a shaker for 30 minutes.
At the end of the incubation period, the assay mixtures are each filtered through a Whatman glass fiber filter B on a Brandel tissue harvester and washed twice with Buffer A. The filters are pre-soaked in Buffer C before use. The filter strips are removed after the final wash and individual filters counted in a Gamma Counter. The counts from the "Non-Specific" tubes are then averaged and subtracted from the average "Totals" to give the Specific Counts. […]

Test [2] concerns peripherial gastrin and CCK-B (brain) receptors. The note with it: cited from earlier work.
Test [3] concerns CCK-A (peripheral CCK) receptor. The note with it: second generation proglumide analogues; cited from earlier work.
In test [4] the test system is gastrin receptor. To be noted: cited from earlier work.
For test [5], the system named is gastrin receptor. The note with it: cited from earlier work. The source holds these as a separate data set.
In a further test the test system is gastrin. The note with it: rat (in vivo); cited from earlier work.

For `NC(=O)[C@H](CC(=O)OCc1ccccc1)NC(=O)[C@H]1Cc2c([nH]c3ccccc23)CN1C(=O)c1ccccc1` [Example 7, N-[(3R)-2-benzoyl-1,2,3,4-tetrahydro-9H-pyrido[3,4-b]indole-3-carboxyl]-L-aspartic acid amide β-benzyl ester], the 50% inhibitory concentration (IC50) (as a rule, the concentration that inhibits the measured activity by half) at CCK-A receptor is 25 µM.

In the case of `COc1ccc(NC(=O)N2Cc3[nH]c4ccccc4c3C[C@@H]2C(=O)Nc2ccccc2C(=O)N2CCCC2)cc1` [Example 21, pyrrolidine-2-N-[(3R)-2-(4-methoxyphenylcarbamoyl)-1,2,3,4-tetrahydro-9H-pyrido[3,4-b]indole-3-carboxyl]aminobenzamide], at Gastrin receptor [1], the half-maximal inhibitory concentration (IC50) is 90 µM. The same measure, in the same setting: to `NC(=O)[C@H](CC(=O)O)NC(=O)[C@@H]1CCCN1C(=O)[C@H]1Cc2c([nH]c3ccccc23)CN1C(=O)Nc1ccc(Cl)c(Cl)c1` [Example 25] belongs 0.23 µM; to `CC(C)C[C@@H](NC(=O)[C@@H]1Cc2c([nH]c3ccccc23)CN1C(=O)Nc1ccc(Cl)c(Cl)c1)C(=O)N[C@H](CC(=O)O)C(N)=O` [Example 71], 4 µM. Take `Cc1cccc(NC(=O)N[C@@H]2N=C(c3ccccc3)c3ccccc3N(C)C2=O)c1` [L-365,260]: the “selectivity for peripheral gastrin and CCK-B (brain) receptors” value in test [2] is “selective for the peripherial gastrin and CCK-B (brain) receptors”. On to `CCCCCN(CCCCC)C(=O)C(CCC(=O)O)NC(=O)c1ccc(Cl)c(Cl)c1` (centres unmarked) [Lorglumide], for which the “receptor affinity and selectivity” value in test [3] is “considerably better receptor affinity and selectivity”.

On to `CCCCCN(CCCOC)C(=O)C(CCC(=O)O)NC(=O)c1ccc(Cl)c(Cl)c1` (centres unmarked) [Loxiglumide], for which, in test [3], the “receptor affinity and selectivity” value was “considerably better receptor affinity and selectivity”. With Boc-Trp-Leu-.PSI.(CH2 NH)-Asp-Phe-NH2, the binding affinity result with gastrin receptor [4] (compared with Boc-Trp-Leu-Asp-Phe-NH2) is given as “same binding affinity as Boc-Trp-Leu-Asp-Phe-NH2”. Besides, the agonist activity entry in the test on gastrin receptor [5] was “no agonist activity”. Turning to Boc-Trp-Leu-gAsp-m(R,S)Phe-NH2, in the test with gastrin receptor [4] (analogues of CCK-4 with partial retroinverso modifications), the “binding to the gastrin receptor” value is “bind strongly”. Besides, the “block the effects of gastrin” value in the test on gastrin was “block the effects of gastrin”.

Source of the values: patent US5162336A, “Tetrahydro-pyrido-indoles as cholecystokinin and gastrin antagonists” (Rhone-Poulenc Rorer Pharmaceuticals Inc., priority 1990, dated 1992).
